Measured values taken from patent US12528840B2, “Transcription active complex targeting cancer drug from viral protein sequence” (The Regents of the University of California, priority 2020, dated 2026).

Legend:
Format in all cases: cell-based
[1] = system: B cells; test: B cell expansion in U-bottom plate upon sCD40L or ODN 2006 stimulation; settings: 32 μM
Procedure: B cells were prepared by magnetic beads from healthy donor PBMC (n=2). Representative pictures of B cell culture in a 96 well U-bottom plate in the presence of sCD40L (T cell dependent stimulation) or ODN 2006 (TLR9 ligand)(T cell independent stimulation) at indicated concentration without or with MBK50 (16, 32 μM) or mutant peptide (32 μM). The radius of cell volume in each well roughly correlate to the total cell numbers.

[2] = system: multiple cancer cell lines; test: MTT assay on multiple cancer cell lines; settings: 0-96 μM; BCBL-1, Ramos, SU-DHL-10, HH, Jurkat, THP-1, U937, A549
Procedure: FIG. 6. Viral and cellular responses to K-Rta peptide; identification of VGN50. (a) Protein sequence alignment. FIG. 6(A) The effect of VGN50 on various cancer cell types. MTT assays were performed with the indicated cell lines treated with various VGN50 concentrations. The O.D. of mock-treated samples were set as 100%, and O.D. from detergent treated cells were set as 0%. Percentage viability+/−SD was calculated for each treatment (N=3 samples/treatment). FIG. 6(B) Viability assay with flow cytometry. Cell viability was measured in triplicate with live/dead staining and the cell killing effects on cancer cells was compared with normal peripheral blood mononuclear cells (PBMC) from three healthy donors. Results are presented as percentage viability+/−SD deviation (N=3 samples/group).
As shown in FIG. 6(a), multiple cancer cell lines were used for MTT assay to evaluate cancer cell killing efficacies of the MBK50 peptide at different concentrations (cell variability studies). […] Importantly, human peripheral blood mononuclear cells (PBMCs) from healthy donors were approximately 10-fold less sensitive to MBK-mediated killing compared to myeloid and lymphoid cancer cell lines (e.g., THP-1 and BCBL-1) as assessed by flow cytometry after live/dead staining (FIG. 6(b)). […]

[3] = system: NU-DUL1 cell; test: Cell growth inhibition with deletion peptides
Description: FIG. 7. Cell growth inhibition with deletion peptides identified key amino acid residue.
BCL2 mutations are frequently seen in B-cell lymphoma and the cell types are often refractory to chemotherapy due to anti-apoptotic phenotype. […] In addition, Essential Leucine residue is identified with the deletion peptides.

[4] = system: MYC; test: SLAM-seq, MYC transcription; settings: 24 μM, 30 min then 4sU 1 hour
Procedure: FIG. 9. Profiling Peptide targets with Thiol(SH)-linked alkylation for the metabolic sequencing of RNA (SLAM seq). Differences in active transcription in presence of peptide drug was examined. […] Total RNA-sequence performed 24 hours after drug incubation.
Thiol(SH)-linked alkylation for the metabolic sequencing of RNA (SLAM seq), an orthogonal-chemistry-based RNA sequencing technology detects 4-thiouridine (s4U) incorporation in RNA species at single-nucleotide resolution. Using SLAM-seq method, BC-1 cells were incubated with peptide drug and peptide with three amino acid substitute to alanine was used as a control peptide. Peptide drug was incubated in BC-1 cell culture (24 μM) and after 30 min drug incubation, 4sU (300 μM in final concentration) was added into culture media for 1 hour. Total RNA was isolated in the end of 1 hour 4sU incubation and alkylated RNA samples were subjected to SLAM-seq. Samples were duplicated and changed gene expression vs mock-treated cells (P<0.05) was marked in red. […] IGV viewer was used to visualize sequence reads at MYC region (Chr. 8). […] Log 2 fold changes and adjusted P-value of MYC down regulation in both BCBL-1 and BC-1 cells are depicted in underneath of panel.

[5] = system: Kaposi's sarcoma-associated herpesvirus (KSHV); test: Total RNA-sequencing of peptide-resistant KSHV-infected B-cells; settings: continued peptide incubation, resistant cells vs parental cells
Procedure: FIG. 10. Peptide long-term treatment changes B-cell phenotype. RNA-seq was performed after generating peptide-drug resistant cell population.
The peptide sequence is based on KSHV transactivator protein sequence, and it is expected that the peptide will compete with viral transactivator protein for recruitment of cellular transactivation complex. We continued to incubate with peptide drug in KSHV-naturally infected B-cells and generated resistant cell line (RC). The resistant cells were then used to identify putative drug targets by comparing parental cells with total RNA-sequencing.

[6] = system: IRF4; test: Intracellular staining of IRF4 in LPS-activated THP-1 cells; settings: THP-1, LPS 100 ng/ml, 16 μM, 24 hours
Description: FIG. 16. Effect of MBK50 on MYC and IRF4 expression in LPS-activated monocytic leukemia cell line THP-1 cells. […] MYC and IRF4 expression levels were examined by intracellular staining of MYC and IRF4 with isotype control staining followed by flow cytometry. FIG. 16(a) A scheme of the experimental procedure. FIG. 16(b) A representative histogram overlay for the MYC expression in THP-1 cells treated with MBK50, mutant control peptide or PBS, with isotype control. The average mean fluorescent intensity (MFI) for MYC expression (n=3) for each treatment is shown in the right panel. FIG. 16(c) A representative histogram overlay for the IRF4 expression (red) in THP-1 cells treated with MBK50, mutant control peptide, or PBS, with isotype control (blue). The average MFI for IRF4 expression for each treatment is shown in the right panel.
MYC is important for monocytic cell proliferation, especially upon LPS stimulation. […] MYC and IRF4 expression levels were examined by intracellular staining of MYC and IRF4 with isotype control staining followed by flow cytometry (FIG. 16a). […] Also, the percentage of THP-1 cells with reduced IRF4 expression was increased by MBK50 treatment compared to mutant control peptide or PBS treatment.

In the case of LSSILQGLYQLDT [MBK50], the “cell volume in well (correlates to total cell numbers)” value ([1]; donor #46) is reported as “significantly reduced”, the “cell volume in well (correlates to total cell numbers)” value ([1]; donor #47) is reported as “less so” and the “cancer cell killing efficacy across cell lines” value [2] is reported as “more effective to lymphoid cell lines”. For the same sequence, the “activity on BCL2 negative lymphoma cell lines” value [3] was “still works”, the “MYC transcript species containing T→C mutation (Myc transcription)” value [4] was “significantly decreased” and the “MYC transcript species containing T→C mutation (Myc transcription)” value ([4]; listed as peptide drug) was “strongly down-regulated”. The “latently infected KSHV gene expression” value [5] was “significantly down-regulated” and the “percentage of THP-1 cells with reduced IRF4 expression” value [6] was “increased”.
